Data from paper PMC6797808, “Fucosylated inhibitors of recently identified bangle lectin from Photorhabdus asymbiotica” (Scientific Reports, 2019).
Converted amounts (≈) assume the structure as drawn. Read-outs that look alike come from different tables or passages of the source.

Tests used:
PHL [1] = biological target: T1, PHL (Photorhabdus asymbiotica, UniProt C7BLE4); assay: Hemagglutination inhibition assay with PHL (papain-treated human RBCs O); assay type: cell-based; settings: for MIC (minimal inhibitory concentration, hemagglutination by PHL): RBC O, two independent measurements; for PotencyL-Fuc: MIC L-fucose / MIC ligand; for β L-Fuc (affinity improvement factor): MICbasic unit/(valency × MICligand), basic unit L-Fuc
Protocol: The set of potential ligands 1–10 with different levels of fucosylation was tested, and their inhibition potency on hemagglutination by PHL was assessed (Table 1, Fig. 2). […] To assess the contribution of valency to the affinity increase, an affinity improvement factor β was calculated as the relationship MICbasic unit/(valency × MICligand).
Human red blood cells (RBCs) O were processed according to previously published work[16]. In brief, RBCs O treated with sodium citrate were washed four times by PBS buffer (137 mM NaCl, 2.7 mM KCl, 8 mM Na2HPO4, 1.47 mM KH2PO4, pH 7.4), diluted to 50% by PBS with 0.005% (w/w) sodium azide and treated by 0.1% papain for the duration of 30 minutes.
Hemagglutination inhibition assay was performed for specificity and semi-quantitative affinity of the PHL interaction with the compounds. All carbohydrate inhibitors in 50 mM starting concentration were serially diluted in the PBS buffer and used for a determination of the lowest inhibiting concentration. As a blank, the PBS buffer supplemented with the appropriate amount of DMSO was used in order to exclude potential interference with the interaction. The individual samples were mixed with the lectin in concentration 2 mg/ml in a 5 μl:5 μl ratio. Thereafter, 10 μl of 10% RBCs O in PBS buffer was added, thoroughly mixed and incubated for 10 minutes at room temperature. Following incubation, the mixture was again mixed and the reaction was observed on microscope slides using Levenhuk 2L NG microscope with Levenhuk D2L digital camera (Levenhuk, USA). Imagines were obtained via software ToupView for Windows (Levenhuk). The positive (PHL without inhibitor) and negative control (reaction without PHL) were prepared and processed in the same way using the appropriate volume of PBS buffer instead of the not included components. The lowest concentration of inhibitor able to inhibit agglutination was determined and compared with the standard (L-fucose). Minimal inhibitory concentrations (MIC) of synthesised inhibitors were determined from two independent measurements.

PHL [2] = biological target: T1, PHL; assay: SPR competitive inhibition of PHL binding to α-L-fucoside sensor chip; settings: for IC50: 25 °C, three independent measurements; for β L-Fuc (affinity improvement factor): IC50,basic unit/(valency × IC50,ligand), basic unit L-Fuc; for PotencyL-Fuc: IC50 L-fucose / IC50 ligand
Protocol: To analyse the competitive inhibition of PHL binding to a multivalent surface, the surface plasmon resonance (SPR) technique was employed. A sensor chip presenting α-L-fucopyranoside residues was treated with a constant concentration of PHL, while an increasing concentration of the ligands was used to determine IC50 (Table 2, Fig. 3). […] To assess the contribution of valency to the affinity increase, an affinity improvement factor β was calculated as the relationship IC50,basic unit/(valency × IC50,ligand)[30].
Surface plasmon resonance (SPR) experiments were performed on a BIAcore T200 instrument (GE Healthcare, UK) at 25 °C, using buffer A supplemented with 0.05% Tween 20 as a running buffer. α-L-fucoside was immobilized onto CM5 sensor chip (GE Healthcare, UK) covered with a carboxymethylated dextran matrix. The sensor chip surface was activated with N-ethyl-N-(3-dimethylaminopropyl)carbodiimide/N-hydroxysuccinimide solution and then coated with streptavidin using the manufacturer’s standard protocol using HBS buffer (10 mM HEPES, 150 mM NaCl, 0.05% Tween 20, pH 7. 5). Unreacted groups were blocked with 1 M ethanolamine-HCl, pH 8.5. Biotinylated carbohydrate (biotinilated monomeric probes, Lectinity, Russia) was injected onto particular measuring channel and pure biotin on blank channel at a flow rate of 5 μl/min.
SPR inhibition measurements were carried out on measuring channel with L-fucoside at a flow rate of 5 µl/min. PHL was diluted to a concentration of 20 μg/ml by the buffer A supplemented with 0.05% Tween 20, mixed 1:1 (v/v) with various concentrations of inhibitors (500–5 μM) in the same buffer and injected onto the sensor chip. The response of lectin bound to the sugar surface at equilibrium was plotted against the concentration of inhibitor in order to determine IC50 (concentration of inhibitor resulting in 50% inhibition of binding). As IC50 is not a constant and depends on the experimental set-up, a parameter called potency was used for characterization. The potency of a tested inhibitor is the ratio of IC50 of a chosen standard inhibitor (in this case L-fucose) and the inhibitor in question. Pure PHL lectin was used as a control (0% inhibition) and channel with pure biotin served as a blank. IC50 was determined from triplicates.

[3] = system: P. asymbiotica subsp. australis cells; assay: Cell aggregation (cross-linking) assay; assay type: cell-based, Photorhabdus asymbiotica subsp. australis; settings: three independent measurements
Excerpt: Because of the aggregation of PHL by calixarenes and dendrimers during SPR and ITC experiments, we decided to compare tetravalent compounds at a higher level. We performed a series of in vitro aggregation assays to reveal their aggregation properties towards P. asymbiotica subsp. australis (Table 4, Fig. 5). Prior to each assay, we confirmed the absence of aggregates in two negative controls – bacterial cells in PBS buffer and in the presence of azide 1 as a monomer. With all chosen compounds, we observed bacterial aggregates of a variable size that confirmed that they are capable of interacting with a cell surface. This effect may be caused by interaction of the multivalent inhibitors with PHL or other receptors. The concentration of the first appearance of aggregates varied according to the nature of the ligand used. […] An unexpected observation was that calixarene 7 had the lowest aggregation potential. In contrast to other techniques (hemagglutination, SPR and ITC), where calixarenes 6 and 7 provided similar results, during cross-linking experiments calixarene 7 was four times worse than calixarene 6. At the same time, both tetrameric calixarenes 6 and 7 are in a 1,3-alternate conformation with the two-faced presentation of the fucopyranosyl epitopes on opposite regions probably occupying a similar spatial orientation. The only difference is the tert-Bu group on the upper rim in calixarene 6, which might contribute to nonpolar interactions with whole P. asymbiotica cells.
P. asymbiotica subsp. australis was inoculated from stock cells stored at −80 °C into a standard LB media and were grown in 30 °C under an orbital shaking overnight. Bacterial growth was tracked by measuring the optical density of the broth at 600 nm (OD600) using a spectrophotometer (Biochrom Ltd., BioPhotometer WGA CO 8000 Biowave). Cells were harvested when reaching an OD600 = 0.5. The culture was centrifuged at 4,300 g and room temperature for 2 minutes (Minispin, Eppendorf, Germany) and cells were then washed three times with PBS buffer. Cells were diluted in PBS to OD600 of 2.0 and kept in a fridge until performing the aggregation assay.
P. asymbiotica subsp. australis cells and fucosylated compounds in a concentration ranging from 50 mM to 3.125 mM were gently mixed in a 9:1 (v/v) ratio. The reaction mixtures were left at room temperature for 10 minutes. 5 µl of reaction mixture was then transferred onto a microscope slide and observed under a fluorescence microscope (OLYMPUS IX81 Microscope IX81F-3 with IX2-UCB-2 Controller and X-Cite 120PC Q; Olympus and Excelitas Technologies, Japan, resp. USA). As a negative control, bacterial cells with/without azide 1 as a monomer were used. Three independent measurements were performed.

PHL [4] = biological target: T1, PHL; assay: Isothermal titration calorimetry of PHL with ligands; assay type: binding
Excerpt: The binding of PHL to different α-L-fucoside compounds was further characterized by isothermal titration calorimetry (ITC), enabling determination of the complete thermodynamic profile of the molecular interactions (Table 3, Fig. 4). […] Because of this, it was not possible to evaluate the data, despite the obvious interaction. The dendrimers also cross-linked/aggregated the protein as with calixarenes, however the curves provided clear outcomes with an affinity in the low micromolar range. The dissociation constants (KD) of all dendrimers correlate with their valency – the higher number of fucose, the more decreased KD. […] The stoichiometry value n corresponds to the number of terminal fucoses per ligand molecule. The n value decreases from 4 to 1 as the number of fucose units increases from 1 to 12 (Table 3).
PHL protein in buffer A was equilibrated at room temperature at least for 30 min before ITC measurement. All ITC experiments were performed using ITC200 calorimeter (Malvern Panalytical, UK) at 25 °C. Carbohydrate ligands dissolved in buffer A were used at different concentrations. Protein in the calorimeter cell (50 μM) was titrated by consecutive additions (2 μl) of the ligand (1.5–5 mM) in the syringe while stirring at 1000 rpm. Integrated heat effects were analysed by nonlinear regression using a single-site binding model and global fitting in Origin 7 software (Microcal Instruments)[37]. The thermodynamic parameters of synthesised inhibitors were determined from two independent measurements.

PHL [5] = biological target: T1, PHL; parameters: method as in PMID 28806750; settings: SPR competition assay, earlier work; cited from earlier work

T1 sequence (C7BLE4 entry or part of it): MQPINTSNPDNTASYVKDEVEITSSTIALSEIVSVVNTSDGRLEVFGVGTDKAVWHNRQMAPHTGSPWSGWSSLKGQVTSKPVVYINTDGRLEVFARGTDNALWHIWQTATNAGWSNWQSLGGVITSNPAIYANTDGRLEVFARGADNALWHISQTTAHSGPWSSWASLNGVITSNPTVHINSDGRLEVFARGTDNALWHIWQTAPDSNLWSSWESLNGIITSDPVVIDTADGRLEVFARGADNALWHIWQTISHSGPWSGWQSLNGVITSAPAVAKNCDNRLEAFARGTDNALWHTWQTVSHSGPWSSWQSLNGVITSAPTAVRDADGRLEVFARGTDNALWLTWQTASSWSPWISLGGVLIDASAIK

C[C@@H]1O[C@@H](CCn2cc(COc3c4cccc3Cc3cccc(c3OCc3cn(CC[C@@H]5O[C@@H](C)[C@@H](O)[C@@H](O)[C@@H]5O)nn3)Cc3cccc(c3OCc3cn(CC[C@@H]5O[C@@H](C)[C@@H](O)[C@@H](O)[C@@H]5O)nn3)Cc3cccc(c3OCc3cn(CC[C@@H]5O[C@@H](C)[C@@H](O)[C@@H](O)[C@@H]5O)nn3)C4)nn2)[C@@H](O)[C@H](O)[C@@H]1O [Calixarene 7]
MIC (minimal inhibitory concentration, hemagglutination by PHL) (PHL [1]): 100 µM (≈ 145 µg/mL) | PotencyL-Fuc (PHL [1]; hemagglutination): 31.3 | β L-Fuc (affinity improvement factor) (PHL [1]; hemagglutination): 7.8 | β Azide1 (affinity improvement factor) (PHL [1]; hemagglutination, basic unit azide 1): 0.5 | PotencyAzide1 (PHL [1]; hemagglutination, relative to azide 1): 2 | IC50 (PHL [2]): 0.178 ± 0.02 µM | β L-Fuc (affinity improvement factor) (PHL [2]): 508 | PotencyL-Fuc (PHL [2]): 2,029 | β Azide1 (affinity improvement factor) (PHL [2]; basic unit azide 1): approximately 15 | PotencyAzide1 (PHL [2]; relative to azide 1): 61 | The lowest concentration able to aggregate P. asymbiotica cells [3]: 5 mM

CO[C@@H]1O[C@@H](C)[C@@H](O)[C@@H](O)[C@@H]1O [α-Me-Fuc, methyl α-L-fucopyranoside, reference compound]
Kd (PHL [4]; ITC at 25 °C): 267 ± 11 µM | −TΔS (PHL [4]; ITC at 25 °C): 9.23 ± 1.03 kcal/mol | −ΔG (PHL [4]; ITC at 25 °C): 4.88 ± 0.22 kcal/mol | −ΔH (PHL [4]; ITC at 25 °C): 14.1 ± 1 kcal/mol | n (stoichiometry) (PHL [4]; ITC at 25 °C, two independent measurements): 2.9 ± 0.2 | Potency L-Fuc (PHL [4]; ITC, KD L-fucose / KD ligand): 5 | β L-Fuc (affinity improvement factor) (PHL [4]; ITC, KD,basic unit/(valency × KD,ligand), basic unit L-Fuc): 5 | MIC (minimal inhibitory concentration, hemagglutination by PHL) (PHL [1]): 400 µM (≈ 71.3 µg/mL) | PotencyL-Fuc (PHL [1]; hemagglutination): 7.8 | β L-Fuc (affinity improvement factor) (PHL [1]; hemagglutination): 7.8 | IC50 (PHL [2]): 38.5 ± 1.2 µM | β L-Fuc (affinity improvement factor) (PHL [2]): 9 | PotencyL-Fuc (PHL [2]): 9 | IC50 (PHL [5]): 40 µM | fold stronger ligand than free L-fucose (PHL [5]): ~10 fold
